According to patent publication US20230250066A1, “HERBICIDAL CINNOLINE DERIVATIVES” (SYNGENTA CROP PROTECTION AG, priority 2020, published 2023):

Legend:
Format in all cases: in vivo
[1] = tested on: Ipomoea hederacea (IPOHE); experiment: Pre-emergence herbicidal test; details: 1000 g/ha, evaluated after 13 days
[2] = tested on: Abutilon theophrasti (ABUTH); experiment: Pre-emergence herbicidal test; details: 1000 g/ha, evaluated after 13 days
[3] = tested on: Echinochloa crus-galli (ECHCG); experiment: Pre-emergence herbicidal test; details: 1000 g/ha, evaluated after 13 days
[4] = tested on: Ipomoea hederacea (IPOHE); experiment: Post-emergence herbicidal test; details: 1000 g/ha unless otherwise stated, evaluated after 13 days
In short: (§1)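 Spray-applied at 1000 g/ha unless stated, in the glasshouse. Damage rated 13 days later on a 0–5 scale.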

[5] = tested on: Amaranthus retoflexus (AMARE); experiment: Post-emergence herbicidal test; details: 1000 g/ha unless otherwise stated, evaluated after 13 days
In short: as §1

[6] = tested on: Echinochloa crus-galli (ECHCG); experiment: Post-emergence herbicidal test; details: 1000 g/ha unless otherwise stated, evaluated after 13 days
In short: as §1

Zea mays (ZEAMX) [7] = experiment: Post-emergence herbicidal test; details: 1000 g/ha unless otherwise stated, evaluated after 13 days
In short: as §1

[8] = tested on: Abutilon theophrasti (ABUTH); experiment: Post-emergence herbicidal test; details: 1000 g/ha unless otherwise stated, evaluated after 13 days
In short: as §1

Setaria faberi (SETFA) [9] = experiment: Post-emergence herbicidal test; details: 1000 g/ha unless otherwise stated, evaluated after 13 days
In short: as §1

Setaria faberi (SETFA) [10] = experiment: Pre-emergence herbicidal test; details: 1000 g/ha, evaluated after 13 days
Zea mays (ZEAMX) [11] = experiment: Pre-emergence herbicidal test; details: 1000 g/ha, evaluated after 13 days
[12] = tested on: Amaranthus retoflexus (AMARE); experiment: Pre-emergence herbicidal test; details: 1000 g/ha, evaluated after 13 days

| Structure (SMILES) | percentage damage caused to the plant, five-point scale, IPOHE [1] | percentage damage caused to the plant, five-point scale, ABUTH [2] | percentage damage caused to the plant, five-point scale, ECHCG [3] | percentage damage caused to the plant, IPOHE (five-point scale) [4] | percentage damage caused to the plant, AMARE (five-point scale) [5] | percentage damage caused to the plant, ECHCG (five-point scale) [6] | percentage damage caused to the plant, ZEAMX (five-point scale) (Zea mays (ZEAMX) [7]) | percentage damage caused to the plant, ABUTH (five-point scale) [8] | percentage damage caused to the plant, SETFA (five-point scale) (Setaria faberi (SETFA) [9]) | percentage damage caused to the plant, five-point scale, SETFA (Setaria faberi (SETFA) [10]) | percentage damage caused to the plant, five-point scale, ZEAMX (Zea mays (ZEAMX) [11]) | percentage damage caused to the plant, five-point scale, AMARE [12] |
| --- | --- | --- | --- | --- | --- | --- | --- | --- | --- | --- | --- | --- |
| CS(=O)(=O)c1cccc2c1c(=O)c(C(=O)OCC1CC1)nn2-c1ccc(OC(F)(F)F)cc1 [Compound P63, cyclopropylmethyl 5-methylsulfonyl-4-oxo-1-[4-(trifluoromethoxy)phenyl]cinnoline-3-carboxylate] | 0 (0=0%) | 0 (0=0%) | 3 (3=41-60%) | 0 (0=0%) | 0 (0=0%) | 3 (3=41-60%) | 0 (0=0%) | 0 (0=0%) | 4 (4=61-80%) | 5 (5=81-100%) | 0 (0=0%) | 0 (0=0%) |
| CCCCCCCCSC(=O)c1nn(-c2ccc(OC(F)(F)F)cc2)c2cccc(S(C)(=O)=O)c2c1=O [Compound P90, S-octyl 5-methylsulfonyl-4-oxo-1-[4-(trifluoromethoxy)phenyl]cinnoline-3-carbothioate] | 0 (0=0%) | 0 (0=0%) | 3 (3=41-60%) | 1 (1=10-20%) | 0 (0=0%) | 3 (3=41-60%) | 1 (1=10-20%) | 0 (0=0%) | 4 (4=61-80%) | 4 (4=61-80%) | 0 (0=0%) | 0 (0=0%) |
| CS(=O)(=O)c1cccc2c1c(=O)c(C(=O)SCCCc1ccccc1)nn2-c1ccc(OC(F)(F)F)cc1 [Compound P92, S-(3-phenylpropyl) 5-methyslulfonyl-4-oxo-1-[4-(trifluoromethoxy)phenyl]cinnoline-3-carbothioate] | 0 (0=0%) | 1 (1=10-20%) | 1 (1=10-20%) | 2 (2=21-40%) | 1 (1=10-20%) | 3 (3=41-60%) | 1 (1=10-20%) | 2 (2=21-40%) | 3 (3=41-60%) | 3 (3=41-60%) | 0 (0=0%) | 1 (1=10-20%) |
| CC(C)OC(=O)c1nn(-c2ccc(OC(F)(F)F)cc2)c2cccc(S(C)(=O)=O)c2c1=O [Compound P65, isopropyl 5-methylsulfonyl-4-oxo-1-[4-(trifluoromethoxy)phenyl]cinnoline-3-carboxylate] | 0 (0=0%) | 1 (1=10-20%) | 4 (4=61-80%) | 0 (0=0%) | 1 (1=10-20%) | 3 (3=41-60%) | 0 (0=0%) | 1 (1=10-20%) | 4 (4=61-80%) | 4 (4=61-80%) | 0 (0=0%) | 1 (1=10-20%) |
| C=CC(C)OC(=O)c1nn(-c2ccc(OC(F)(F)F)cc2)c2cccc(S(C)(=O)=O)c2c1=O (stereo not drawn) [Compound P64, 1-methylallyl 5-methylsulfonyl-4-oxo-1-[4-(trifluoromethoxy)phenyl]cinnoline-3-carboxylate] | 0 (0=0%) | 0 (0=0%) | 4 (4=61-80%) | 0 (0=0%) | 0 (0=0%) | 3 (3=41-60%) | 1 (1=10-20%) | 1 (1=10-20%) | 4 (4=61-80%) | 5 (5=81-100%) | 0 (0=0%) | 0 (0=0%) |
| CCOC(=O)c1nn(-c2ccc(OC(F)(F)F)cc2)c2cc(C#N)cc(SC)c2c1=O [Compound P55, ethyl 7-cyano-5-methylsulfanyl-4-oxo-1-[4-(trifluoromethoxy)phenyl]cinnoline-3-carboxylate] | 0 (0=0%) | 1 (1=10-20%) | 0 (0=0%) | 0 (0=0%) | 0 (0=0%) | 0 (0=0%) | 0 (0=0%) | 0 (0=0%) | 0 (0=0%) | 0 (0=0%) | 0 (0=0%) | 0 (0=0%) |
| CCOC(=O)c1nn(-c2ccc(OC(F)(F)F)cc2)c2ccc(OC)c(S(C)(=O)=O)c2c1=O [Compound P49, ethyl 6-methoxy-5-methylsulfonyl-4-oxo-1-[4-(trifluoromethoxy)phenyl]cinnoline-3-carboxylate] | 0 (0=0%) | 0 (0=0%) | 0 (0=0%) | 1 (1=10-20%) | 0 (0=0%) | 1 (1=10-20%) | 0 (0=0%) | 0 (0=0%) | 1 (1=10-20%) | 0 (0=0%) | 0 (0=0%) | 0 (0=0%) |
| CCOC(=O)c1nn(-c2ccc(OC(F)(F)F)cc2)c2cc(CC(C)C)cc(S(C)(=O)=O)c2c1=O [Compound P46, ethyl 7-isobutyl-5-methysulfonyl-4-oxo-1-[4-(trifluoromethoxy)phenyl]cinnoline-3-carboxylate] | 0 (0=0%) | 1 (1=10-20%) | 0 (0=0%) | 1 (1=10-20%) | 0 (0=0%) | 1 (1=10-20%) | 1 (1=10-20%) | 1 (1=10-20%) | 1 (1=10-20%) | 0 (0=0%) | 2 (2=21-40%) | 0 (0=0%) |
